According to ChEMBL document CHEMBL5154744, “Stereo-Defined Acyclic Nucleoside Phosphonates are Selective and Potent Inhibitors of Parasite 6-Oxopurine Phosphoribosyltransferases” (J Med Chem, 2022):

Assays:
[1] = Inhibition of Plasmodium vivax HGPRT using PRib-PP as substrate by spectrophotometric assay
[2] = Inhibition of Plasmodium falciparum HGXPRT using PRib-PP as substrate by spectrophotometric assay
[3] = biological target: T1, Hypoxanthine-guanine phosphoribosyltransferase (Homo sapiens, UniProt P00492); assay: Inhibition of human HGPRT using PRib-PP as substrate by spectrophotometric assay
T1 sequence (P00492 whole entry): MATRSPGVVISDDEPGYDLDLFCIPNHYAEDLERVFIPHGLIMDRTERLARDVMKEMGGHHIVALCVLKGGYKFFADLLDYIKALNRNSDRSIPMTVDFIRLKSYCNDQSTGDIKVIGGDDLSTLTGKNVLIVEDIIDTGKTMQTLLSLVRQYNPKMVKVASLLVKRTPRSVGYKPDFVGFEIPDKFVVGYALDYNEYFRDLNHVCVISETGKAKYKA

HeLa = assay: Cytotoxicity against human HeLa cells assessed as cell viability at 10 uM; format: toxicity, cell-based
[4] = Inhibition of His-tagged Trypanosoma brucei HGPRT1 expressed in Escherichia coli BL21 (DE3) cells using PRib-PP as substrate by spectrophotometric assay
NHDF = assay: Cytotoxicity against human NHDF cells assessed as cell viability at 10 uM; format: toxicity, cell-based
[5] = Inhibition of His-tagged Trypanosoma brucei HGXPRT expressed in Escherichia coli BL21 (DE3) cells using PRib-PP as substrate by spectrophotometric assay

| SMILES | Ki [1] [nM] | Ki [2] [nM] | Ki [3] [nM] | Activity (HeLa) | Ki [4] [nM] | Activity (NHDF) | Ki [5] [nM] |
| --- | --- | --- | --- | --- | --- | --- | --- |
| Nc1nc2c(ncn2C[C@H](COCP(=O)([O-])[O-])OCC(O)CO)c(=O)[nH]1.[Na+].[Na+] (stereo not given in full) | 5000 | 1000 | 4000 | Non-Toxic | 500 | Non-Toxic | 2000 |
| Nc1nc2c(ncn2C[C@@H](COCP(=O)([O-])[O-])OC[C@H](O)P(=O)([O-])[O-])c(=O)[nH]1.[Na+].[Na+].[Na+].[Na+] | 20 | 50 | 100 | Non-Toxic | 2 | Non-Toxic | 30 |
| O=c1[nH]cnc2c1ncn2C[C@@H](COCP(=O)([O-])[O-])OCC(O)CO.[Na+].[Na+] (stereo not given in full) | 13000 | 2400 | – | Non-Toxic | 1000 | Non-Toxic | 14000 |
| O=C(CCP(=O)(O)O)N1CC(OCCP(=O)(O)O)[C@H](n2cnc3c(=O)[nH]cnc32)C1 (stereo not given in full) | 80 | 14 | 20 | – | – | – | – |
| O=c1[nH]cnc2c1ncn2C[C@@H](COCP(=O)([O-])[O-])OCC(O)P(=O)([O-])[O-].[Na+].[Na+].[Na+].[Na+] (stereo not given in full) | 200 | 400 | 4000 | Non-Toxic | 30 | Non-Toxic | 30 |
| Nc1nc2c(ncn2C[C@H](COCP(=O)([O-])[O-])OCCCP(=O)([O-])[O-])c(=O)[nH]1.[Na+].[Na+].[Na+].[Na+] | 700 | 800 | 400 | Non-Toxic | 40 | Non-Toxic | 60 |
| Nc1nc2c(ncn2C[C@@H](COCP(=O)([O-])[O-])OCCCP(=O)([O-])[O-])c(=O)[nH]1.[Na+].[Na+].[Na+].[Na+] | 400 | 200 | 500 | Non-Toxic | 10 | Non-Toxic | 250 |
| O=c1[nH]cnc2c1ncn2C[C@@H](COCP(=O)([O-])[O-])OCCCP(=O)([O-])[O-].[Na+].[Na+].[Na+].[Na+] | – | 6000 | 22000 | Non-Toxic | 400 | Non-Toxic | 450 |
| O=C(CCP(=O)(O)O)N1CC(OC[C@@H](O)P(=O)(O)O)[C@H](n2cnc3c(=O)[nH]cnc32)C1 (stereo not given in full) | 6 | 2 | – | – | – | – | – |
| Nc1nc2c(ncn2C[C@@H](COCP(=O)([O-])[O-])OC[C@@H](O)P(=O)([O-])[O-])c(=O)[nH]1.[Na+].[Na+].[Na+].[Na+] | 20 | 30 | 70 | Non-Toxic | 2 | Non-Toxic | 20 |
| O=c1[nH]cnc2c1ncn2CCCC(O)C(O)P(=O)(O)O (stereo not given) | – | 3000 | 5000 | – | 7000 | – | 6000 |
| Nc1nc2c(ncn2CCOCC(O)P(=O)(O)O)c(=O)[nH]1 (stereo not given) | – | 300 | 200 | – | – | – | 600 |
| Nc1nc2c(ncn2C[C@H](COCP(=O)([O-])[O-])OCC(O)P(=O)([O-])[O-])c(=O)[nH]1.[Na+].[Na+].[Na+].[Na+] (stereo not given in full) | 300 | 100 | 400 | Non-Toxic | 40 | Non-Toxic | 40 |
| O=c1[nH]cnc2c1ncn2CCC/C=C/P(=O)(O)O | – | 13000 | 6000 | – | 1000 | – | 12000 |
| O=c1[nH]cnc2c1ncn2C[C@H](COCP(=O)([O-])[O-])OCCCP(=O)([O-])[O-].[Na+].[Na+].[Na+].[Na+] | – | – | 300 | Non-Toxic | 1500 | Non-Toxic | 200 |
| O=c1[nH]cnc2c1ncn2CCOCC(O)P(=O)(O)O (stereo not given) | – | 700 | 2000 | – | 600 | – | 100 |
| Nc1nc2c(ncn2CC(COCP(=O)(O)O)COCP(=O)(O)O)c(=O)[nH]1 | 600 | 70 | – | – | – | – | – |
| O=c1[nH]cnc2c1ncn2C[C@H](COCP(=O)([O-])[O-])OCC(O)CO.[Na+].[Na+] (stereo not given in full) | – | – | – | Non-Toxic | 2400 | Non-Toxic | 9000 |
| O=c1[nH]cnc2c1ncn2C[C@H](COCP(=O)([O-])[O-])OCC(O)P(=O)([O-])[O-].[Na+].[Na+].[Na+].[Na+] (stereo not given in full) | 700 | – | 2000 | Non-Toxic | 300 | Non-Toxic | 100 |
| Nc1nc2c(ncn2C[C@@H](COCP(=O)([O-])[O-])OCC(O)CO)c(=O)[nH]1.[Na+].[Na+] (stereo not given in full) | 2000 | 1000 | 9000 | Non-Toxic | 300 | Non-Toxic | 2000 |
| Nc1nc2c(ncn2C[C@@H](COCCOP(=O)(O)O)COCP(=O)(O)O)c(=O)[nH]1 | 200 | 70 | 6 | – | – | – | – |
| Nc1nc2c(ncn2C[C@@H](COCP(=O)([O-])[O-])OCC(O)P(=O)([O-])[O-])c(=O)[nH]1.[Na+].[Na+].[Na+].[Na+] (stereo not given in full) | 10 | 30 | 100 | Non-Toxic | 5 | Non-Toxic | 20 |
